Several values for one entry are separate records, joined by “and”; a condition that tells them apart may be missing. Equal entries are not always repeated.
Tests used:
[1] = biological target: T1, NOS1 domain 1 (Homo sapiens, UniProt P29475); assay: G assay PDZ-PL binding; settings: peptide 10 uM, protein 5
T1 construct: made in house; host or cells: E. coli (DH5alpha, BL21 or JM109)
Protocol: (§1) (1) A PDZ-domain polypeptide is bound to a surface, e.g. a protein binding surface. In a preferred embodiment, a GST/PDZ fusion protein containing one or more PDZ domains is bound to a polystyrene 96-well plate. […] In one embodiment, the GST/PDZ fusion protein is bound via an anti-GST antibody that is coated onto the 96-well plate. Adequate binding to the plate can be achieved when: • a. 100 uL per well of 5 ug/mL goat anti-GST polyclonal antibody (Pierce) in PBS is added to a polystyrene 96-well plate (e.g., Num Polysorb) at 4° C. for 12 hours. • b. The plate is blocked by addition of 200 uL per well of PBS/BSA for 2 hours at 4° C. • c. The plate is washed 3 times with PBS. • d. 50 uL per well of 5 ug/mL GST/PDZ fusion protein) or, as a negative control, GST polypeptide alone (i.e. not a fusion protein) in PBS/BSA is added to the plate for 2 hours at 4° C. • e. The plate is again washed 3 times with PBS.
(§2) (2) Biotinylated PL peptides are allowed to react with the surface by addition of 50 uL per well of 20 uM solution of the biotinylated peptide in PBS/BSA for 10 minutes at 4° C., followed by an additional 20 minute incubation at 25° C.
(§3) (3) The binding of the biotinylated peptide to the GST/PDZ fusion protein surface can be detected using a variety of methods and detectors known to one of skill in the art. In one embodiment, 100 uL per well of 0.5 ug/mL streptavidin-horse radish peroxidase (HRP) conjugate dissolved in BSA/PBS is added and allowed to react for 20 minutes at 4° C. The plate is then washed 5 times with 50 mM Tris pH 8.0 containing 0.2% Tween 20, and developed by addition of 100 uL per well of HRP-substrate solution (TMB, Dako) for 20 minutes at room temperature (RT). The reaction of the HRP and its substrate is terminated by addition of 100 uL per well of 1M sulfuric acid, and the absorbance of each well of the plate is read at 450 nm.
(§4) (4) Specific binding of a PL peptide and a PDZ domain polypeptide is determined by comparing the signal from the well(s) in which the PL peptide and PDZ domain polypeptide are combined, with the background signal(s). The background signal is the signal found in the negative control(s). Typically a specific or selective reaction will be at least twice background signal, more typically more than 5 times background, and most typically 10 or more times the background signal. In addition, a statistically significant reaction will involve multiple measurements of the reaction with the signal and the background differing by at least two standard errors, more typically four standard errors, and most typically six or more standard errors. Correspondingly, a statistical test (e.g. a T-test) comparing repeated measurements of the signal with-repeated measurements of the background will result in a p-value<0.05, more typically a p-value<0.01, and most typically a p-value<0.001 or less. As noted, in an embodiment of the “G” assay, the signal from binding of a given PL peptide to immobilized (surface bound) GST polypeptide alone is one suitable negative control (sometimes referred to as “B 1”). Because all measurement are done in multiples (i.e. at least duplicate) the arithmetic mean (or, equivalently, average.) of several measurements is used in determining the binding, and the standard error of the mean is used in determining the probable error in the measurement of the binding. The standard error of the mean of N measurements equals the square root of the following: the sum of the squares of the difference between each measurement and the mean, divided by the product of (N) and (N−1). Thus, in one embodiment, specific binding of the PDZ protein to the platebound peptide is determined by comparing the mean signal (“mean S”) and standard error of the signal (“SE”) for a particular PL-PDZ combination with the mean B1. […]

[2] = biological target: T2, NeDLG domain 3 (Homo sapiens, UniProt Q92796); assay: G assay PDZ-PL binding; settings: peptide 10 uM, protein 5
T2 construct: made in house; host or cells: E. coli (DH5alpha, BL21 or JM109), vector pGEX-3X
T2 sequence (Q92796 with tags, fused parts or gaps): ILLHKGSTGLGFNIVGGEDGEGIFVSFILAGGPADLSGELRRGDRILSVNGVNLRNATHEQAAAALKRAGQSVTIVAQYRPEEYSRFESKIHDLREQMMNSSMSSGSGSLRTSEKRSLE
Protocol: as §1, §2, §3, §4

T1 sequence (P29475 11-100): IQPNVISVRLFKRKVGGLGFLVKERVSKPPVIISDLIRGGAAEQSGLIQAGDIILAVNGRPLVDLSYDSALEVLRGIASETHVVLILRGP

20 mer peptide corresponding to the C-terminus of HPV16 E6 (PDZ ligand), biotinylated in binding assays; ends SSRTRRETQL (SEQ ID NO: 13) [HPV E6 #16]
Ave OD ([1]; A450 nm): 0.4775 | OD S/N ([1]; vs GST only well): 2.88 | Ave OD ([2]; A450 nm): 0.632 and 0.5225 | OD S/N ([2]; vs GST only well): 3.69 and 2.49
